Values joined by “and” are separate entries in the source; they are usually repeats but may differ in a detail not shown here. Identical values can stand only once. Toxic doses and inconclusive results are not listed. Rule as the data show it: active = T/C of 150% or more; inactive = T/C below 125%. Square brackets hold non-standard residues; d marks the D form. Peptide text beside a SMILES is read from it. ξ: configuration not given here. Ac5c = NC1(C(=O)O)CCCC1; ξS = NC(CO)C(=O)O
Tested on: L1210 leukemia ip in BDF1 mice, survival T/C
Test: NCI In Vivo Anticancer Drug Screen. Data for tumor model L1210 Leukemia (intraperitoneal) in B6D2F1 (BDF1) mice
Details: endpoint: mean survival time, higher = longer survival
In short: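 Tumor was transplanted into mice, which were then dosed with test compound or vehicle alone. Survival was recorded for each group, and the treated figure was expressed relative to the control figure.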

[1] = dose: 25.0 mg/kg/injection, schedule: Q04DX003 (ip), vehicle: saline
[2] = dose: 50.0 mg/kg/injection, schedule: Q04DX003 (ip), vehicle: saline
[3] = dose: 50.0 mg/kg/injection, schedule: Q01DX009 (ip), vehicle: saline
[4] = dose: 100.0 mg/kg/injection, schedule: Q01DX009 (ip), vehicle: saline
[5] = dose: 100.0 mg/kg/injection, schedule: Q04DX003 (ip), vehicle: saline
[6] = dose: 200.0 mg/kg/injection, schedule: Q01DX009 (ip), vehicle: saline
[7] = dose: 200.0 mg/kg/injection, schedule: Q04DX003 (ip), vehicle: saline
[8] = dose: 400.0 mg/kg/injection, schedule: Q04DX003 (ip), vehicle: saline
[9] = dose: 100.0 mg/kg/injection, schedule: Q01DX009 (ip), vehicle: saline with Tween-80
[10] = dose: 100.0 mg/kg/injection, schedule: Q04DX003 (ip), vehicle: saline with Tween-80
[11] = dose: 200.0 mg/kg/injection, schedule: Q01DX009 (ip), vehicle: saline with Tween-80
[12] = dose: 400.0 mg/kg/injection, schedule: Q01DX009 (ip), vehicle: saline with Tween-80
[13] = dose: 400.0 mg/kg/injection, schedule: Q04DX003 (ip), vehicle: saline with Tween-80
[14] = dose: 100.0 mg/kg/injection, schedule: Q01DX001 (ip), vehicle: saline
[15] = dose: 200.0 mg/kg/injection, schedule: Q01DX001 (ip), vehicle: saline
[16] = dose: 400.0 mg/kg/injection, schedule: Q01DX001 (ip), vehicle: saline

Measured: T/C

CC([NH-])C(=O)O.CC([NH-])C(=O)O.[Ni+2] (centres undefined)
inactive: dose: 3.12 mg/kg/injection, schedule: Q01DX009 (ip), vehicle: saline 98 % of control | dose: 6.25 mg/kg/injection, schedule: Q01DX009 (ip), vehicle: saline 101 % of control | dose: 6.25 mg/kg/injection, schedule: Q04DX003 (ip), vehicle: saline 102 % of control | dose: 12.5 mg/kg/injection, schedule: Q01DX009 (ip), vehicle: saline 95 % of control | dose: 12.5 mg/kg/injection, schedule: Q04DX003 (ip), vehicle: saline 98 % of control and 104 % of control | [1] 105 % of control and 109 % of control | [2] 101 % of control

CCCC1(CCC)CN(CO)C1=O
inactive: dose: 25.0 mg/kg/injection, schedule: Q01DX009 (ip), vehicle: saline 102 % of control | [1] 93 % of control | [3] 102 % of control | [2] 98 % of control | [4] 100 % of control | [5] 104 % of control | [6] 97 % of control | [7] 104 % of control | [8] 88 % of control

COC(=O)CC(c1cccc2ccccc12)c1cccc2ccc3ccccc3c12 (centres undefined)
inactive: dose: 100.0 mg/kg/injection, schedule: Q04DX003 (ip), vehicle: DMSO 92 % of control | dose: 200.0 mg/kg/injection, schedule: Q04DX003 (ip), vehicle: DMSO 94 % of control | dose: 400.0 mg/kg/injection, schedule: Q04DX003 (ip), vehicle: DMSO 89 % of control

COc1cc([N+](=O)[O-])c(Cl)cc1NS(=O)(=O)c1ccccc1
inactive: [9] 100 % of control | [10] 97 % of control | dose: 133.0 mg/kg/injection, schedule: Q04DX003 (ip), vehicle: saline with Tween-80 95 % of control and 89 % of control | [11] 103 % of control | dose: 300.0 mg/kg/injection, schedule: Q04DX003 (ip), vehicle: saline with Tween-80 95 % of control and 92 % of control | [12] 89 % of control | [13] 95 % of control

CCCCNCCCC
inactive: [1] 102 % of control | [2] 96 % of control | [5] 94 % of control

CS(=O)(=O)OC/C(Br)=C/Br
inactive: dose: 100.0 mg/kg/injection, schedule: Q01DX001 (ip), vehicle: carboxymethylcellulose (CMC) 103 % of control | dose: 200.0 mg/kg/injection, schedule: Q01DX001 (ip), vehicle: carboxymethylcellulose (CMC) 101 % of control

Nc1n[n+](=O)c2ccccc2n1O
inactive: dose: 1.17 mg/kg/injection, schedule: Q01DX001 (ip), vehicle: other 95 % of control | dose: 2.34 mg/kg/injection, schedule: Q01DX001 (ip), vehicle: other 101 % of control | dose: 4.69 mg/kg/injection, schedule: Q01DX001 (ip), vehicle: other 102 % of control

NS(=O)(=O)c1ccc(N2CCCCC2)c([N+](=O)[O-])c1
inactive: dose: 100.0 mg/kg/injection, schedule: Q01DX005 (ip), vehicle: other 105 % of control | dose: 200.0 mg/kg/injection, schedule: Q01DX005 (ip), vehicle: other 94 % of control | dose: 400.0 mg/kg/injection, schedule: Q01DX005 (ip), vehicle: other 108 % of control

Cc1cccc(Br)[n+]1[O-]
inactive: [3] 110 % of control | [4] 112 % of control | [5] 102 % of control | [7] 97 % of control

Cn1c(=O)n2n(c1=O)C1CCC2C2C=CC21 (centres undefined)
inactive: dose: 6.25 mg/kg/injection, schedule: Q01DX001 (ip), vehicle: saline 93 % of control | dose: 12.5 mg/kg/injection, schedule: Q01DX001 (ip), vehicle: saline 94 % of control

C=CCc1ccccc1OCC(=O)O
inactive: dose: 100.0 mg/kg/injection, schedule: Q04DX002 (ip), vehicle: Klucel (hydroxypropylcellulose) (HPC) 91 % of control | dose: 200.0 mg/kg/injection, schedule: Q04DX002 (ip), vehicle: Klucel (hydroxypropylcellulose) (HPC) 95 % of control | dose: 400.0 mg/kg/injection, schedule: Q04DX002 (ip), vehicle: Klucel (hydroxypropylcellulose) (HPC) 104 % of control

c1cc2cc3c(cc2cc1CC1=NCCc2cc4c(cc21)OCO4)OCO3
inactive: dose: 100.0 mg/kg/injection, schedule: Q04DX003 (ip), vehicle: other 94 % of control | dose: 200.0 mg/kg/injection, schedule: Q01DX009 (ip), vehicle: other 102 % of control | dose: 200.0 mg/kg/injection, schedule: Q04DX003 (ip), vehicle: other 108 % of control | dose: 400.0 mg/kg/injection, schedule: Q01DX009 (ip), vehicle: other 94 % of control | dose: 400.0 mg/kg/injection, schedule: Q04DX003 (ip), vehicle: other 105 % of control

CCSC(SCC)C(NC(C)=O)C1OC(C)(C)OC1C(O)CO (centres undefined)
inactive: dose: 50.0 mg/kg/injection, schedule: Q01DX001 (ip), vehicle: saline 97 % of control | [14] 103 % of control | [15] 103 % of control | [16] 103 % of control

Cc1nc(N)[nH]c(=O)c1CCCNC(=O)c1ccc(CBr)cc1
inactive: dose: 25.0 mg/kg/injection, schedule: Q01DX001 (ip), vehicle: saline with Tween-80 95 % of control | dose: 50.0 mg/kg/injection, schedule: Q01DX001 (ip), vehicle: saline with Tween-80 88 % of control | dose: 100.0 mg/kg/injection, schedule: Q01DX001 (ip), vehicle: saline with Tween-80 97 % of control

NCC(=O)NC(CO)C(=O)O (centres undefined)
inactive: [4] 106 % of control | [5] 110 % of control | [6] 101 % of control | [7] 103 % of control | dose: 400.0 mg/kg/injection, schedule: Q01DX009 (ip), vehicle: saline 95 % of control | [8] 100 % of control

c1ccc2ncc(-c3ccc4ccccc4n3)cc2c1
inactive: dose: 100.0 mg/kg/injection, schedule: Q01DX001 (ip), vehicle: Klucel (hydroxypropylcellulose) (HPC) 100 % of control | [14] 107 % of control | dose: 100.0 mg/kg/injection, schedule: Q01DX009 (ip), vehicle: Klucel (hydroxypropylcellulose) (HPC) 97 % of control and 116 % of control | dose: 200.0 mg/kg/injection, schedule: Q01DX001 (ip), vehicle: Klucel (hydroxypropylcellulose) (HPC) 94 % of control | [15] 96 % of control | dose: 200.0 mg/kg/injection, schedule: Q01DX009 (ip), vehicle: Klucel (hydroxypropylcellulose) (HPC) 95 % of control and 101 % of control | dose: 400.0 mg/kg/injection, schedule: Q01DX001 (ip), vehicle: Klucel (hydroxypropylcellulose) (HPC) 100 % of control | [16] 96 % of control | dose: 400.0 mg/kg/injection, schedule: Q01DX009 (ip), vehicle: Klucel (hydroxypropylcellulose) (HPC) 94 % of control and 100 % of control

O=C1CC(c2ccc(Cl)cc2)NC(c2ccc(Cl)cc2)C1 (centres undefined)
inactive: [9] 101 % of control | [10] 93 % of control | [11] 101 % of control | dose: 200.0 mg/kg/injection, schedule: Q04DX003 (ip), vehicle: saline with Tween-80 96 % of control | [12] 103 % of control | [13] 98 % of control

C=CCNC(=O)c1ccccc1
inactive: dose: 25.0 mg/kg/injection, schedule: Q04DX002 (ip), vehicle: saline with Tween-80 97 % of control | dose: 50.0 mg/kg/injection, schedule: Q04DX002 (ip), vehicle: saline with Tween-80 93 % of control | dose: 100.0 mg/kg/injection, schedule: Q04DX002 (ip), vehicle: saline with Tween-80 111 % of control and 91 % of control

NC(CO)C(=O)NC1(C(=O)O)CCCC1 (centres undefined) (H-[ξS]-[Ac5c]-OH)
inactive: [14] 100 % of control | [15] 107 % of control | [16] 107 % of control

CC(C)CC(=O)Cc1ccccc1
inactive: [14] 105 % of control | [15] 105 % of control | [16] 105 % of control

COC(=O)CCC(=O)c1cc(OC)c2cc3ccccc3cc2c1OC
inactive: dose: 100.0 mg/kg/injection, schedule: Q01DX001 (ip), vehicle: other 96 % of control | dose: 200.0 mg/kg/injection, schedule: Q01DX001 (ip), vehicle: other 96 % of control | dose: 400.0 mg/kg/injection, schedule: Q01DX001 (ip), vehicle: other 100 % of control

COc1cccc(C=Nc2ccc(Br)cc2)c1O.COc1cccc(C=Nc2ccc(Br)cc2)c1O.[Co]
inactive: [5] 98 % of control | [7] 98 % of control | [8] 98 % of control

CCOC(=O)N1CCN(CCO)CC1
inactive: [5] 102 % of control | [7] 94 % of control

COC1c2c(nc3ccccc3c2C(=O)O)-c2ccccc2C1(C)C (centres undefined)
inactive: dose: 100.0 mg/kg/injection, schedule: Q04DX003 (ip), vehicle: Klucel (hydroxypropylcellulose) (HPC) 104 % of control | dose: 200.0 mg/kg/injection, schedule: Q04DX003 (ip), vehicle: Klucel (hydroxypropylcellulose) (HPC) 104 % of control | dose: 400.0 mg/kg/injection, schedule: Q04DX003 (ip), vehicle: Klucel (hydroxypropylcellulose) (HPC) 106 % of control

— PubChem BioAssay AID248 (DTP/NCI, 2004)
